Data on one compound can be found in article PMC9526870 (iScience, 2022).

SMILES strings stand for the structures.

In the experiment the test system is SARS-CoV-2. It is filed as cell-based.

For the compound `CCC(CC)COC(=O)[C@H](C)N[P@](=O)(OC[C@H]1O[C@@](C#N)(c2ccc3c(N)ncnn23)[C@H](O)[C@@H]1O)Oc1ccccc1` [remdesivir], the “SARS-CoV-2 fluorescence signal in host cells (in words)” value is “depletion of the SARS-CoV-2 fluorescence signal”.
